SMILES strings stand for the structures.

The target in the test is T1, N-terminal His6-tagged recombinant full-length human Lck (Homo sapiens, UniProt P06239).
T1 construct: N-terminal His6-tagged recombinant full-length human Lck; His6 (N); purchased Millipore
As to the kind of experiment: Lck IMAP assay. In kind it is biochemical. As to conditions: ATP 6 μM (KM,ATP), enzyme pre-incubated with compounds for 60 minutes, values given as bins. In short, it runs like this:
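Full-length His6-Lck at 0.1 U/ml was preincubated 60 min with compound, then run 120 min at room temperature with 100 nM fluorescein-p34cdc2 peptide and 6 μM ATP (KM) in pH 7.2 Tris buffer. Read-out by IMAP fluorescence polarization; pIC50 from ten-point √10 dilutions starting at 10^-6 M.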

T1 sequence (P06239 whole entry): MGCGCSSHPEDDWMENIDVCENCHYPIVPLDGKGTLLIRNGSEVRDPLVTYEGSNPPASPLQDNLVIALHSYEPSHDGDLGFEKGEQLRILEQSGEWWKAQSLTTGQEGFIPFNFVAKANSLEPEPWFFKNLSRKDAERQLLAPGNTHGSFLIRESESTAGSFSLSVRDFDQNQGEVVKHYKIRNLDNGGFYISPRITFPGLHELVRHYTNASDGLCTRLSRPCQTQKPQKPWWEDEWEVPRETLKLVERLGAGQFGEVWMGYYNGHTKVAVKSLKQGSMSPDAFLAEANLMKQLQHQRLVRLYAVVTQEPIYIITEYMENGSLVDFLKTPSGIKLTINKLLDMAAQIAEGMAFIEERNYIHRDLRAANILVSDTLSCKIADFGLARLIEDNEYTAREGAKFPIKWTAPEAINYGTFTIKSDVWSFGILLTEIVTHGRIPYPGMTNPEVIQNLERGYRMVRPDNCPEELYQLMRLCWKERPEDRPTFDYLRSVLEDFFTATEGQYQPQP

In the case of `COc1cc(-c2nc([C@H]3CC[C@H](N4CCN(C)CC4)CC3)n3ccnc(C)c23)ccc1NC(=O)c1cc(Cl)cn1C` [Example 55, 4-Chloro-N-(2-methoxy-4-(8-methyl-3-((trans)-4-(4-methylpiperazin-1-yl)cyclohexyl)imidazo[1,5-a]pyrazin-1-yl)phenyl)-1-methyl-1H-pyrrole-2-carboxamide], the IC50 is at most 0.01 µM.
In the case of `COc1cc(-c2nc([C@H]3CC[C@H](N4CCN(C)CC4)CC3)n3ccnc(C)c23)ccc1NC(=O)c1cc2ccsc2n1C` [Example 56, N-(2-methoxy-4-(8-methyl-3-((trans)-4-(4-methylpiperazin-1-yl)cyclohexyl)imidazo[1,5-a]pyrazin-1-yl)phenyl)-6-methyl-6H-thieno[2,3-b]pyrrole-5-carboxamide] it was at most 0.01 µM; in that of `COc1cc(-c2nc([C@H]3CC[C@H](N4CCN(C)CC4)CC3)n3ccnc(C)c23)ccc1NC(=O)c1cc2ccsc2[nH]1` [Example 57, N-(2-Methoxy-4-(8-methyl-3-((trans)-4-(4-methylpiperazin-1-yl)cyclohexyl)imidazo[1,5-a]pyrazin-1-yl)phenyl)-6H-thieno[2,3-b]pyrrole-5-carboxamide], at most 0.01 µM; in that of `COc1cc(-c2nc([C@H]3CC[C@H](N4CCN(C)CC4)CC3)n3ccnc(C)c23)ccc1NC(=O)c1cc2c(OC)cccc2[nH]1` [Example 58, 4-Methoxy-N-(2-methoxy-4-(8-methyl-3-((trans)-4-(4-methylpiperazin-1-yl)cyclohexyl)imidazo[1,5-a]pyrazin-1-yl)phenyl)-1H-indole-2-carboxamide], at most 0.01 µM.
In the case of `COc1cc(-c2nc([C@H]3CC[C@H](N4CCN(C)CC4)CC3)n3ccnc(C)c23)ccc1NC(=O)c1cc2c(O)cccc2n1C` [Example 59, 4-Hydroxy-N-(2-methoxy-4-(8-methyl-3-((trans)-4-(4-methylpiperazin-1-yl)cyclohexyl)imidazo[1,5-a]pyrazin-1-yl)phenyl)-1-methyl-1H-indole-2-carboxamide] it was at most 0.01 µM.
In the case of `CCC[C@H](C)OC(=O)Nc1ccc(-c2nc([C@H]3CC[C@H](CN)CC3)n3ccnc(C)c23)cc1OC` [Example 60, (S)-Pentan-2-yl 4-(3-((trans)-4-(aminomethyl)cyclohexyl)-8-methylimidazo[1,5-a]pyrazin-1-yl)-2-methoxyphenylcarbamate] it was at most 0.01 µM; in that of `Cc1nccn2c1c(-c1ccc(NC(=O)c3cc4ccccc4n3C)cc1)nc2[C@H]1CC[C@H](N2CCN(C)CC2)CC1` [Example 61, 1-Methyl-N-(4-(8-methyl-3-((trans)-4-(4-methylpiperazin-1-yl)cyclohexyl)imidazo[1,5-a]pyrazin-1-yl)phenyl)-1H-indole-2-carboxamide], at most 0.01 µM; in that of `COc1cccc2c1cc(C(=O)Nc1ccc(-c3nc([C@H]4CC[C@H](N5CCN(C)CC5)CC4)n4ccnc(C)c34)cc1O)n2C` [Example 62, N-(2-hydroxy-4-(8-methyl-3-((trans)-4-(4-methylpiperazin-1-yl)cyclohexyl)imidazo[1,5-a]pyrazin-1-yl)phenyl)-4-methoxy-1-methyl-1H-indole-2-carboxamide], at most 0.01 µM.
In the case of `CNC[C@H]1CC[C@H](c2nc(-c3ccc(NC(=O)c4cc5c(OC)cccc5n4C)c(OC)c3)c3c(C)nccn32)CC1` [Example 63, 4-Methoxy-N-(2-methoxy-4-(8-methyl-3-((trans)-4-((methylamino)methyl)cyclohexyl)imidazo[1,5-a]pyrazin-1-yl)phenyl)-1-methyl-1H-indole-2-carboxamide], the IC50 was at most 0.01 µM.
In the case of `COc1cc(-c2nc([C@H]3CC[C@H](CN(C)C)CC3)n3ccnc(C)c23)ccc1NC(=O)c1cc2c(OC)cccc2n1C` [Example 64, N-(4-(3-((trans)-4-((dimethylamino)methyl)cyclohexyl)-8-methylimidazo[1,5-a]pyrazin-1-yl)-2-methoxyphenyl)-4-methoxy-1-methyl-1H-indole-2-carboxamide] it was at most 0.01 µM; in that of `CCC[C@H](C)OC(=O)Nc1ccc(-c2nc([C@H]3CC[C@H](CN(C)C)CC3)n3ccnc(C)c23)cc1OC` [Example 65, (S)-Pentan-2-yl 4-(3-((trans)-4-((dimethylamino)methyl)cyclohexyl)-8-methylimidazo[1,5-a]pyrazin-1-yl)-2-methoxyphenylcarbamate], at most 0.01 µM.
The value for `COc1ccc2c(C(=O)Nc3ccc(-c4nc([C@H]5CC[C@H](N6CCN(C)CC6)CC5)n5ccnc(C)c45)cc3OC)n[nH]c2c1` [Example 66, 6-Methoxy-N-(2-methoxy-4-(8-methyl-3-((trans)-4-(4-methylpiperazin-1-yl)cyclohexyl)imidazo[1,5-a]pyrazin-1-yl)phenyl)-1H-indazole-3-carboxamide] was at most 0.01 µM.
Turning to `COc1cc(-c2nc([C@H]3CC[C@H](N4CCN(C)CC4)CC3)n3ccnc(C)c23)ccc1NC(=O)c1cc2cc(Cl)cnc2n1C` [Example 67, 5-Chloro-N-(2-methoxy-4-(8-methyl-3-((trans)-4-(4-methylpiperazin-1-yl)cyclohexyl)imidazo[1,5-a]pyrazin-1-yl)phenyl)-1-methyl-1H-pyrrolo[2,3-b]pyridine-2-carboxamide], the IC50 was at most 0.01 µM.
The value for `COc1cc(-c2nc([C@H]3CC[C@H](CNC(C)=O)CC3)n3ccnc(C)c23)ccc1NC(=O)c1cc2c(OC)cccc2n1C` [Example 68, N-(4-(3-((trans)-4-(acetamidomethyl)cyclohexyl)-8-methylimidazo[1,5-a]pyrazin-1-yl)-2-methoxyphenyl)-4-methoxy-1-methyl-1H-indole-2-carboxamide] was at most 0.01 µM; that for `CCC[C@H](C)OC(=O)Nc1ccc(-c2nc([C@H]3CC[C@H](CNC(C)=O)CC3)n3ccnc(C)c23)cc1OC` [Example 69, (S)-pentan-2-yl 4-(3-((trans)-4-(acetamidomethyl)cyclohexyl)-8-methylimidazo[1,5-a]pyrazin-1-yl)-2-methoxyphenylcarbamate] was at most 0.01 µM; that for `CCC[C@H](C)OC(=O)Nc1ccc(-c2nc([C@H]3CC[C@H](CNC(=O)OC)CC3)n3ccnc(C)c23)cc1OC` [Example 70] was at most 0.01 µM.
The value for `COc1cc(-c2nc(C3CCC(=O)CC3)n3ccnc(C)c23)ccc1NC(=O)c1cc2c(OC)cccc2n1C` [Example 71, 4-Methoxy-N-(2-methoxy-4-(8-methyl-3-(4-oxocyclohexyl)imidazo[1,5-a]pyrazin-1-yl)phenyl)-1-methyl-1H-indole-2-carboxamide] was at most 0.01 µM; that for `CNC[C@]1(O)CC[C@H](c2nc(-c3ccc(NC(=O)c4cc5c(OC)cccc5n4C)c(OC)c3)c3c(C)nccn32)CC1` [Example 72, N-(4-(3-((trans)-4-hydroxy-4-((methylamino)methyl)cyclohexyl)-8-methylimidazo[1,5-a]pyrazin-1-yl)-2-methoxyphenyl)-4-methoxy-1-methyl-1H-indole-2-carboxamide] was at most 0.01 µM; that for `COc1cc(-c2nc(C3CC(=O)N(C)C3)n3ccnc(C)c23)ccc1NC(=O)c1cc2c(OC)cccc2n1C` (stereo not drawn) [Example 73, 4-Methoxy-N-(2-methoxy-4-(8-methyl-3-(1-methyl-5-oxopyrrolidin-3-yl)imidazo[1,5-a]pyrazin-1-yl)phenyl)-1-methyl-1H-indole-2-carboxamide] was at most 0.01 µM.
In the case of `COc1cc(-c2nc([C@H]3CC[C@H](N4CCN(C)C(=O)C4)CC3)n3ccnc(C)c23)ccc1NC(=O)c1cc2c(OC)cccc2n1C` [Example 74, 4-Methoxy-N-(2-methoxy-4-(8-methyl-3-((trans)-4-(4-methyl-3-oxopiperazin-1-yl)cyclohexyl)imidazo[1,5-a]pyrazin-1-yl)phenyl)-1-methyl-1H-indole-2-carboxamide] it was at most 0.01 µM; in that of `COc1cc2cc(C(=O)Nc3ccc(-c4nc([C@H]5CC[C@H](N6CCN(C)CC6)CC5)n5ccnc(C)c45)cc3OC)n(C)c2cn1` [Example 75, 5-Methoxy-N-(2-methoxy-4-(8-methyl-3-((trans)-4-(4-methylpiperazin-1-yl)cyclohexyl)imidazo[1,5-a]pyrazin-1-yl)phenyl)-1-methyl-1H-pyrrolo[2,3-c]pyridine-2-carboxamide], at most 0.01 µM.
